From US20240025893A1, “PYRIMIDINE-AND NITROGEN-CONTAINING BICYCLIC COMPOUND” (Asahi Kasei Pharma Corporation, priority 2020, published 2024)

What was measured:
[1] = tested on: LPS-stimulated TNFα production in THP-1 cells; test: LPS-stimulated TNFα production inhibition test using human acute monocytic leukemia cell strain THP-1; type: cell-based; conditions: Homo sapiens, THP-1, 4 h, LPS 2.5 ng/mL, average values
Protocol: By the THP-1 assay, influence of a test compound on the TNFα production induced by LPS stimulation can be evaluated. The THP-1 cells (ATCC, Cat. TIB-202) were inoculated on a 96-well plate at a density of 1×10^5 cells/160 μL/well, a test compound was added in a volume of 20 μL, and the plate was incubated at 37° C. for 1 hour in a 5% CO2 incubator. Then, LPS in a volume of 20 μL (final concentration 2.5 ng/mL, Sigma, Cat. L2630) was added, and the plate was further incubated for 4 hours. After the incubation, the plate was centrifuged, and 100 μL of the supernatant was taken from each well, and used for evaluation of the amount of TNFα using HTRF (Cisbio, Cat. 62TNFPEB). In the measurement of the amount of TNFα, the supernatant was diluted twice with the medium, and then added to wells of a 384-well plate in a volume of 10 μL, then anti-TNFα-cryptate (5 μL), and anti-TNFα-XL665 (5 μL) were added, and the plate was left standing overnight. The fluorescence intensity ratio for the wavelengths of 620 and 665 nm (620 nm/665 nm) was measured with a microplate reader, and the amount of TNFα in the supernatant was calculated by using a calibration curve. The TNFα production suppression ratio observed with no addition of LPS was defined to be 100%, the TNFα production suppression ratio observed with no addition of the test compound was defined to be 0%, and IC50 of the test compound was calculated by using the 4-parameter logistic model of the data analysis software XLfit (ID Business Solutions Ltd.).

human IRAK-4 = human IRAK-4 (Homo sapiens (Human), UniProt Q9NWZ3); test: Measurement of human IRAK-4 inhibitory activity (TR-FRET, peptide substrate phosphorylation, 10 μM ATP); type: biochemical; conditions: 1 nM IRAK-4, 10 μM ATP, 23° C., 30 minutes; average values
Protocol: For the measurement of the activity of the human IRAK-4 (Invitrogen, Cat. PV3362), phosphorylation of the IRAK-4 peptide substrate (biotin-KKKKRFSFKKSFKC) by the enzyme in the presence of 10 μM ATP (Sigma-Aldrich, Cat. A7699) was measured by the TR-FRET method. The enzymatic reaction was performed in a reaction buffer containing 50 mM HEPES (pH 7.2), 1 mM DTT, 0.1 mM Na3VO4, 5 mM MgCl2, 1 mM MnCl2, and 0.1% bovine serum albumin. For the measurement of the IRAK-4 inhibitory activity, a test compound was added to the reaction buffer containing 1 nM IRAK-4, 0.5 μM peptide substrate, and 10 μM ATP, and the mixture was incubated at 23° C. for 30 minutes. Then, a detection solution containing an antibody labeled with europium cryptate (0.3 μg/mL, the antibody was prepared by using the IRAK-4 peptide substrate as the antigen), streptavidin-XL665 (2 μg/mL, CisBio, Cat. 610SAXLB), 50 mM HEPES (pH 7.2), 0.1% BSA, 120 mM KF, and 66.7 mM EDTA (all the concentrations of the reagents are final concentrations) was added to terminate the reaction, and then the mixture was further incubated at 23° C. for 60 minutes. Fluorescence intensity was measured at wavelengths of 665 nm and 620 nm with a microplate reader, and the enzymatic activity was calculated as the ratio of fluorescence intensities at 665 nm and 620 nm (665 nm/620 nm).

Sequence of human IRAK-4 (Q9NWZ3 whole entry): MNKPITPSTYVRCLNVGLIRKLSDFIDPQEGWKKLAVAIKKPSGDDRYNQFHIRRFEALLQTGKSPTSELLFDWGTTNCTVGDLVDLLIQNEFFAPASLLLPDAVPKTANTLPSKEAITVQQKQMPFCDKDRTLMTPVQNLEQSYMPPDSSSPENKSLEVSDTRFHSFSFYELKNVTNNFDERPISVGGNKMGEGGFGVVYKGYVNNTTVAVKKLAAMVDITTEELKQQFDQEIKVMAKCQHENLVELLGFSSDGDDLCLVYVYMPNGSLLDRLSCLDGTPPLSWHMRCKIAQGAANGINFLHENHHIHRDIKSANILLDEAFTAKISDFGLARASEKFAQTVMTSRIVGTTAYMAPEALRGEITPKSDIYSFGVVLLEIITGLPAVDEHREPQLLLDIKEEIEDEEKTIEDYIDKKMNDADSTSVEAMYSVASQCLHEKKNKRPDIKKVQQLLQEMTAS

| Structure (SMILES) | IC50 [1] [nM] | IC50 (human IRAK-4) [nM] |
| --- | --- | --- |
| O=C(Nc1nc2ccc(-c3cnc(CO[C@H]4CCC[C@@H]4O)nc3)c(OCc3nccs3)c2s1)C1CC1 [c-06-02] | 317 | 10.7 |
| COCC(=O)N1CCN([C@H]2C[C@@H](C(=O)Nc3nc4ccc(-c5cnc(CO[C@H]6CCC[C@@H]6O)nc5)cc4s3)C2)[C@@H](C)C1 [b-05-03] | 50 | 1.81 |
| O=C(Nc1nc2ccc(-c3cnc(CO[C@H]4CCC[C@@H]4O)nc3)cc2s1)C1CC(NC2(C(F)(F)F)COC2)C1 (stereo partly drawn) [b-02-78] | 111 | 2.29 |
| COc1c(-c2cnc(CO[C@H]3CCC[C@@H]3O)nc2)ccc2nc(NC(=O)[C@H]3C[C@@H](N4CCN(C(=O)OC(C)(C)C)C[C@@H]4C)C3)sc12 [c-03-01, tert-Butyl (S)-4-((1s,3R)-3-((6-(2-((((1S,2S)-2-hydroxycyclopentyl)oxy)methyl)pyrimidin-5-yl)-7-methoxybenzo[d]thiazol-2-yl)carbamoyl)cyclobutyl)-3-methylpiperazine-1-carboxylate] | 49 | 16.6 |
| Cc1ccc(C(=O)N2CCN([C@H]3C[C@@H](C(=O)Nc4nc5ccc(-c6cnc(CO[C@H]7CCC[C@@H]7O)nc6)cc5s4)C3)[C@@H](C)C2)cn1 [b-04-44] | 23 | 0.46 |
| C[C@H]1CN(C(=O)c2cccnc2C(F)(F)F)CCN1[C@H]1C[C@@H](C(=O)Nc2nc3ccc(-c4cnc(CO[C@H]5CCC[C@@H]5O)nc4)cc3s2)C1 [b-04-30] | 62 | 1.49 |
| CCC(=O)N1CCN([C@H]2C[C@@H](C(=O)Nc3cc4cc(-c5cnc(CO[C@H]6CCC[C@@H]6O)nc5)ccn4n3)C2)[C@@H](C)C1 [e-02-05] | 123 | 1.14 |
| O=C(Nc1nc2ccc(-c3cnc(CO[C@H]4CCC[C@@H]4O)nc3)cc2s1)C1CC(CN2CC(F)C2)C1 (stereo partly drawn) [d-05-02] | 223 | 2.1 |
| C[C@H]1CN(C(=O)c2ccon2)CCN1[C@H]1C[C@@H](C(=O)Nc2cc3cc(-c4cnc(CO[C@H]5CCC[C@@H]5O)nc4)ccn3n2)C1 [e-02-26] | 80 | 1.86 |
| O=C(Nc1nc2ccc(-c3cnc(CO[C@H]4CCC[C@@H]4O)nc3)cc2s1)C1CC2(CCOCC2)C1 [d-01-05] | 101 | 2.07 |
| CC1(C)CN(C2CC(C(=O)Nc3nc4ccc(-c5cnc(CO[C@H]6CCC[C@@H]6O)nc5)cc4s3)C2)[C@@H]2CCC[C@H]2O1 (stereo partly drawn) [b-02-70] | 90 | 2.94 |
| C[C@H]1CN(C(=O)c2cccnc2)CCN1[C@H]1C[C@@H](C(=O)Nc2cc3cc(-c4cnc(CO[C@H]5CCC[C@@H]5O)nc4)ccn3n2)C1 [e-02-02] | 123 | 1.38 |
| CN(C1CC(C(=O)Nc2nc3ccc(-c4cnc(CO[C@H]5CCC[C@@H]5O)nc4)cc3s2)C1)C12CC(C)(C1)C2 (stereo partly drawn) [b-03-04] | 117 | 1.67 |
| COc1ccc([C@@H]2CC2C(=O)Nc2nc3ccc(-c4cnc(CO[C@H]5CCC[C@@H]5O)nc4)cc3s2)cc1 (stereo partly drawn) [a-01-10] | 678 | 12.1 |
| O=C(Nc1nc2ccc(-c3cnc(CO[C@H]4CCC[C@@H]4O)nc3)cc2s1)C1CC(N2CC[C@@H](F)C2)C1 (stereo partly drawn) [b-02-01] | 195 | 3.16 |
| O=C(Nc1nc2ccc(-c3cnc(CO[C@H]4CCC[C@@H]4O)nc3)cc2s1)C1CC(N2CCC[C@@H](F)C2)C1 (stereo partly drawn) [b-02-16] | 107 | 2.01 |
| C[C@H]1CN(C(=O)c2ccnnc2)CCN1[C@H]1C[C@@H](C(=O)Nc2nc3ccc(-c4cnc(CO[C@H]5CCC[C@@H]5O)nc4)cc3s2)C1 [b-04-28] | 72 | 1.58 |

| Structure (SMILES) | IC50 [1] [nM] | IC50 (human IRAK-4) [nM] |
| --- | --- | --- |
| CC(C)[C@H]1CN(C(=O)c2ccccn2)CCN1C1CC(C(=O)Nc2nc3ccc(-c4cnc(CO[C@H]5CCC[C@@H]5O)nc4)cc3s2)C1 (stereo partly drawn) [b-04-15] | 28 | 1.61 |
| CCCOCc1ncc(-c2ccn3nc(NC(=O)[C@H]4C[C@@H](N5CCN(C(=O)c6ccnc(C(F)(F)F)c6)C[C@@H]5C)C4)cc3c2)cn1 [e-02-17] | 200 | 1.36 |
| C[C@H]1CN(C(=O)[C@@H]2CCOC2)CCN1[C@H]1C[C@@H](C(=O)Nc2nc3ccc(-c4cnc(CO[C@H]5CCC[C@@H]5O)nc4)cc3s2)C1 [b-04-22] | 50 | 1.3 |
| CCOc1c(-c2cnc(CO[C@H]3CCC[C@@H]3O)nc2)ccc2nc(NC(=O)C3CC3)sc12 [c-04-02] | 207 | 6.33 |
| C[C@H]1CN(CC(F)(F)F)CCN1C1CC(C(=O)Nc2nc3ccc(-c4cnc(CO[C@H]5CCC[C@@H]5O)nc4)cc3s2)C1 (stereo partly drawn) [b-07-01, N-(6-(2-((((1S,2S)-2-Hydroxycyclopentyl)oxy)methyl)pyrimidin-5-yl)benzo[d]thiazol-2-yl)-3-((S)-2-methyl-4-(2,2,2-trifluoroethyl)piperazin-1-yl)cyclobutane-1-carboxamide] | 58 | 2.34 |
| Cn1cc([C@@H]2CC2C(=O)Nc2nc3ccc(-c4cnc(CO[C@H]5CCC[C@@H]5O)nc4)cc3s2)cn1 (stereo partly drawn) [a-01-07] | 148 | 1.73 |
| O=C(Nc1nc2ccc(-c3cnc(COC[C@@H]4CCCO4)nc3)cc2s1)C1CC1 [a-05-01] | 304 | 7.81 |
| CCCOCc1ncc(-c2ccn3nc(NC(=O)[C@H]4C[C@@H](N5CCN(C(=O)c6cc(C)nc(C)c6)C[C@@H]5C)C4)cc3c2)cn1 [e-02-23] | 111 | 0.88 |
| O=C(Nc1nc2ccc(-c3cnc(CO[C@H]4CCC[C@@H]4O)nc3)cc2s1)C1C[C@H]1c1ccncc1 (stereo partly drawn) [a-01-08] | 161 | 2.66 |
| CC(C)[C@H]1COCCN1[C@H]1C[C@@H](C(=O)Nc2cc3cc(-c4cnc(CO[C@H]5CCC[C@@H]5O)nc4)ccn3n2)C1 [e-02-11] | 95 | 1.04 |
| C[C@H]1CN(C(=O)OC(C)(C)C)CCN1[C@H]1C[C@@H](C(=O)Nc2nc3ccc(-c4cnc(CO[C@H]5CCC[C@@H]5O)nc4)cc3s2)C1 [b-04-01, tert-Butyl (S)-4-((1S,3R)-3-((6-(2-((((1S,2S)-2-hydroxycyclopentyl)oxy)methyl)pyrimidin-5-yl)benzo[d]thiazol-2-yl)carbamoyl)cyclobutyl)-3-methylpiperazine-1-carboxylate] | 51 | 5.49 |
| C[C@H]1CN(C(=O)C23CC(C#N)(C2)C3)CCN1[C@H]1C[C@@H](C(=O)Nc2nc3ccc(-c4cnc(CO[C@H]5CCC[C@@H]5O)nc4)cc3s2)C1 [b-04-03] | 46 | 3.21 |
| C[C@H]1CN(C(=O)c2nccs2)CCN1[C@H]1C[C@@H](C(=O)Nc2nc3ccc(-c4cnc(CO[C@H]5CCC[C@@H]5O)nc4)cc3s2)C1 [b-04-31] | 55 | 1.73 |
| O=C(Nc1nc2ccc(-c3cnc(CO[C@H]4CCC[C@@H]4O)nc3)cc2s1)C1CC2(CCN(C(=O)c3ccccn3)CC2)C1 [d-03-06] | 125 | 0.849 |
| CC(=O)N1CCN([C@H]2C[C@@H](C(=O)Nc3nc4ccc(-c5cnc(CO[C@H]6CCC[C@@H]6O)nc5)cc4s3)C2)[C@@H](C)C1 [b-05-01, (1R,3s)-3-((S)-4-Acetyl-2-methylpiperazin-1-yl)-N-(6-(2-((((1S,2S)-2-hydroxycyclopentyl)oxy)methyl)pyrimidin-5-yl)benzo[d]thiazol-2-yl)cyclobutane-1-carboxamide] | 48 | 1.9 |
| COc1c(-c2cnc(CO[C@H]3CCC[C@@H]3O)nc2)ccc2nc(NC(=O)[C@@H]3C[C@H]3C)sc12 [c-02-01] | 110 | 3.7 |
